{
  "source": "patent EP1140026B1",
  "about": "“BIODEGRADBLE POLYMER ENCAPSULATED SEROTONIN RECEPTOR ANTAGONIST AND METHOD FOR PREPARING THE SAME” (AVENTIS PHARMACEUTICALS INC., priority 1998, dated 2000)",
  "key": {"[1]": {"tested_on": "prepulse inhibition and latent inhibition", "details": "cited from earlier work"}, "platelets": {"tested_on": "platelets", "details": "aggregation as the result of minor alterations in the endothelial lining of the vasculature; cited from earlier work"}, "[2]": {"tested_on": "A10 vs. A9 neuronal activity", "details": "after chronic administration; cited from earlier work"}, "Male Wistar rats": {"tested_on": "Male Wistar rats", "assay": "Chronic Mild Stress Model of Depression (CMS), consumption of 1% sucrose solution", "assay_type": "in vivo", "text": "CMS uses mild stressors, such as food and water deprivation, cage tilts, changes of cage mates, etc. Over a period of weeks of exposure to the mild stressors, the animals gradually reduce their consumption of a highly preferred sucrose solution which persists (in untreated animals) for several weeks following the cessation of stress. This decreased sensitivity to reward (the sucrose solution) reflects anhedonia, a symptom of a Major Depressive Episode (see for example, Behavioral Pharmacol. 5: Suppl.1, p. 86 (1994) where lithium, carbamazepine and ketoconazole were evaluated in CMS; Psychopharmacology 93:358-364 (1987) where a tricyclic antidepressant was evaluated in CMS; Behavioral Pharmacology: 5:344-350 (1994) where a catechol-O-methyl transferase inhibitor was evaluated in CMS).\nMale Wistar rats were brought into the laboratory two months before the start of the experiment at which time they weighed approximately 300 grams. Except as described below, the animals were singly housed, with food and water freely available, and maintained on a 12 hour light/dark cycle (lights on at 8AM) at a temperature of about 22 °C.\nThe animals were first trained to consume a 1% sucrose solution; training consisted of eight 1 hour baseline tests in which sucrose was presented, in the home cage, following 14 hours food and water deprivation;- intake was measured by weighing pre-weighed bottles containing the sucrose solution at the end of the test. Subsequently, sucrose consumption was monitored, under similar conditions, at weekly intervals throughout the whole experiment.\nOn the basis of their sucrose intakes in the final baseline test, the animals were divided into two matched groups. One group of animals was subjected to a chronic mild stress procedure for a period of 9 consecutive weeks. Each week of stress regime consisted of: two periods of food or water deprivation (12 and 14 hour), two periods of 45 degree cage tilt (12 and 14 hour+), two periods of intermittent overnight illumination (lights on and off every 2 hours), two 14 hour periods of soiled cage (200 ml water in sawdust bedding), two 14 hour periods of paired housing, two 14 hour periods of low intensity stroboscopic illumination (150 flashes/min). Stressors were applied continuously throughout the day and night, and scheduled randomly. Control animals were housed in a separate room and had no contract with the stressed animals. They were deprived of food and water for the 14 hours preceding each sucrose test, but otherwise food and water were freely available in the home cage. On the basis of their sucrose intake scores following 3 weeks of stress, both stressed and control animals were each divided further into matched subgroups (n=8), and for subsequent five weeks they received daily administrations of vehicle (1ml/kg, intraperitoneally (ip)) imipramine (10mg/kg, ip) or MDL 100,907 (0.002, 0.02 and 0.2 mg/kg orally). All drug injections were in a volume of 1ml/kg body weight. Drugs were administered at 10AM and sucrose tests were carried out 24 hours following the last drug treatment. After five weeks, the treatments were terminated and after one week of withdrawal a final sucrose test was carried out. Stress was continued throughout the period of treatment and withdrawal.\nResults were analyzed by multiple analysis of variance, followed by Fisher's LSD test for post hoc comparisons of means."}, "myocardial tissue": {"tested_on": "myocardial tissue", "details": "cited from earlier work"}, "[3]": {"tested_on": "amphetamine-stimulated locomotion", "details": "in vivo; cited from earlier work"}, "[4]": {"tested_on": "MDMA-induced dopamine release in the striatum", "details": "in vivo; cited from earlier work"}},
  "data": [
    {"smiles": "COc1cccc(C(O)C2CCN(CCc3ccc(F)cc3)CC2)c1OC", "note": "(stereo not drawn) [MDL 100,907, (+)-α-(2,3-dimethoxyphenyl)-1-[2-(4-fluorophenyl)ethyl]-4-piperidinemethanol]", "values": [
      {"measurement": "disrupted PPI (prepulse inhibition)", "setting": "[1]; disruption produced by 5HT agonists in Wistar rats", "value": "restore disrupted PPI"},
      {"measurement": "5-HT2 agonist-induced deficits in prepulse inhibition and latent inhibition", "setting": "[1]; rat, in vivo", "value": "reversal"},
      {"measurement": "rate at which platelets aggregate", "setting": "platelets", "value": "decreases the rate at which platelets aggregate"},
      {"measurement": "A10 vs. A9 neuronal activity", "setting": "[2]", "value": "selective effects"},
      {"measurement": "sucrose intake throughout the whole treatment period", "setting": "Male Wistar rats; 0.002mg/kg orally daily, stressed animals", "value": "no significant effect"},
      {"measurement": "sucrose consumption after five weeks of treatment", "setting": "Male Wistar rats; 0.002mg/kg orally daily, stressed animals, Week 5", "value": "did not differ from the intakes of the vehicle-treated stressed animals"},
      {"measurement": "treatment time after which sucrose intakes were significantly increased from initial scores (Week 0)", "setting": "Male Wistar rats; 0.02 mg/kg orally daily, stressed animals", "value": "two"},
      {"measurement": "amount of sucrose solution drunk at the end of treatment period (Week 5)", "setting": "Male Wistar rats; 0.02 mg/kg orally daily, stressed animals, Week 5", "value": "comparable to that of vehicle-treated controls and significantly higher than that of vehicle-treated stressed animals"},
      {"measurement": "treatment time after which sucrose intakes were significantly increased from initial scores (Week 0)", "setting": "Male Wistar rats; 0.2 mg/kg orally daily, stressed animals", "value": "three"},
      {"measurement": "amount of sucrose solution drunk at the end of treatment period (Week 5)", "setting": "Male Wistar rats; 0.2 mg/kg orally daily, stressed animals, Week 5", "value": "comparable to that of vehicle-treated controls and significantly higher than that of vehicle-treated stressed animals"},
      {"measurement": "sucrose intakes one week after withdrawal from the treatment", "setting": "Male Wistar rats; 0.002, 0.02 and 0.2 mg/kg, control and stressed animals, one week after withdrawal", "value": "not significantly changed"},
      {"measurement": "sucrose intake in control animals", "setting": "Male Wistar rats; MDL 100,907 0.002, 0.02 and 0.2 mg/kg orally daily, five weeks", "value": "no significant effect"},
      {"measurement": "CMS-induced deficit in sucrose intake in stressed animals", "setting": "Male Wistar rats; MDL 100,907 0.002, 0.02 and 0.2 mg/kg orally daily, five weeks, stressed animals", "value": "gradually reversed the CMS-induced deficit in sucrose intake"},
      {"measurement": "anti-arrhythmic activity, classification system of Vaughan Williams", "setting": "myocardial tissue", "value": "Class III anti-arrhythmic activity"},
      {"measurement": "duration of the action potential of myocardial tissue", "setting": "myocardial tissue", "value": "increases the duration of the action potential"},
      {"measurement": "amphetamine-stimulated locomotion", "setting": "[3]", "value": "blockade"},
      {"measurement": "MDMA-induced dopamine release in the striatum", "setting": "[4]", "value": "reduction"}
    ]},
    {"smiles": "CN(C)CCCN1c2ccccc2CCc2ccccc21", "note": "[Imipramine, reference compound]", "values": [
      {"measurement": "sucrose intake in control animals", "setting": "Male Wistar rats; imipramine 10mg/kg ip daily, five weeks", "value": "no significant effect"},
      {"measurement": "sucrose intake in stressed animals", "setting": "Male Wistar rats; imipramine 10mg/kg ip daily, five weeks, stressed animals", "value": "gradual increase of sucrose intake"},
      {"measurement": "sucrose intake after five weeks of treatment, stressed animals versus controls", "setting": "Male Wistar rats; imipramine 10mg/kg ip daily, Week 5", "value": "no significant differences between drug-treated stressed animals and drug- and saline-treated controls"},
      {"measurement": "treatment time after which sucrose intake was significantly increased from Week 0 scores", "setting": "Male Wistar rats; imipramine 10mg/kg ip daily, stressed animals", "value": "four"},
      {"measurement": "increase of sucrose intake one week after withdrawal from the drug", "setting": "Male Wistar rats; imipramine 10mg/kg ip, stressed animals, one week after withdrawal", "value": "maintained at similar level"}
    ]}
  ]
}
